Results published in PubChem BioAssay AID248 (DTP/NCI, 2004).
“And” between values parts separate entries of the source, which are not always exact repeats. Equal entries are not always repeated. Inconclusive results and toxic doses are left out.

System: L1210 leukemia ip in BDF1 mice, survival T/C
Test: NCI In Vivo Anticancer Drug Screen. Data for tumor model L1210 Leukemia (intraperitoneal) in B6D2F1 (BDF1) mice
Details: endpoint: mean survival time, higher = longer survival
How it was run: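 Read-out is survival time, reported as the treated-group measurement over the vehicle-control measurement.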

[1] = dose: 50.0 mg/kg/injection, schedule: Q01DX001 (ip), vehicle: carboxymethylcellulose (CMC)
[2] = dose: 100.0 mg/kg/injection, schedule: Q01DX001 (ip), vehicle: carboxymethylcellulose (CMC)
[3] = dose: 200.0 mg/kg/injection, schedule: Q01DX001 (ip), vehicle: carboxymethylcellulose (CMC)
[4] = dose: 400.0 mg/kg/injection, schedule: Q01DX001 (ip), vehicle: carboxymethylcellulose (CMC)
[5] = dose: 100.0 mg/kg/injection, schedule: Q01DX009 (ip), vehicle: saline with Tween-80
[6] = dose: 100.0 mg/kg/injection, schedule: Q04DX003 (ip), vehicle: saline with Tween-80
[7] = dose: 200.0 mg/kg/injection, schedule: Q01DX009 (ip), vehicle: saline with Tween-80
[8] = dose: 200.0 mg/kg/injection, schedule: Q04DX003 (ip), vehicle: saline with Tween-80
[9] = dose: 400.0 mg/kg/injection, schedule: Q01DX009 (ip), vehicle: saline with Tween-80
[10] = dose: 400.0 mg/kg/injection, schedule: Q04DX003 (ip), vehicle: saline with Tween-80
[11] = dose: 100.0 mg/kg/injection, schedule: Q01DX009 (ip), vehicle: Klucel (hydroxypropylcellulose) (HPC)
[12] = dose: 100.0 mg/kg/injection, schedule: Q04DX003 (ip), vehicle: Klucel (hydroxypropylcellulose) (HPC)
[13] = dose: 200.0 mg/kg/injection, schedule: Q01DX009 (ip), vehicle: Klucel (hydroxypropylcellulose) (HPC)
[14] = dose: 400.0 mg/kg/injection, schedule: Q01DX009 (ip), vehicle: Klucel (hydroxypropylcellulose) (HPC)
[15] = dose: 400.0 mg/kg/injection, schedule: Q04DX003 (ip), vehicle: Klucel (hydroxypropylcellulose) (HPC)
[16] = dose: 100.0 mg/kg/injection, schedule: Q01DX001 (ip), vehicle: saline
[17] = dose: 200.0 mg/kg/injection, schedule: Q01DX001 (ip), vehicle: saline
[18] = dose: 400.0 mg/kg/injection, schedule: Q01DX001 (ip), vehicle: saline

## Nc1nc2ccc(CNc3ccc(C(=O)NC(CC(=O)O)C(=O)O)cc3)cc2c(=O)[nH]1 (configuration not stated)
dose: 18.7 mg/kg/injection, schedule: Q01DX001 (ip), vehicle: saline with Tween-80
  T/C: 102 % of control
dose: 37.5 mg/kg/injection, schedule: Q01DX001 (ip), vehicle: saline with Tween-80
  T/C: 113 % of control
dose: 75.0 mg/kg/injection, schedule: Q01DX001 (ip), vehicle: saline with Tween-80
  T/C: 115 % of control
dose: 100.0 mg/kg/injection, schedule: Q01DX001 (ip), vehicle: saline with Tween-80
  T/C: 109 % of control
dose: 200.0 mg/kg/injection, schedule: Q01DX001 (ip), vehicle: saline with Tween-80
  T/C: 109 % of control

## COc1cc(/C=N\NC(=O)c2cccc(Cl)c2)ccc1N(CCCl)CCCl
[1]
  T/C: 100 % of control
[2]
  T/C: 103 % of control
[3]
  T/C: 105 % of control
[4]
  T/C: 103 % of control

## Cc1ccc(S(=O)(=O)N/N=C/c2ccccc2C)cc1
[5]
  T/C: 105 % of control
[6]
  T/C: 98 % of control
[7]
  T/C: 100 % of control
[8]
  T/C: 95 % of control
[9]
  T/C: 97 % of control
[10]
  T/C: 95 % of control

## C/C=C/C=C\COC(=O)CC
dose: 100.0 mg/kg/injection, schedule: Q04DX002 (ip), vehicle: saline
  T/C: 103 % of control
dose: 200.0 mg/kg/injection, schedule: Q04DX002 (ip), vehicle: saline
  T/C: 100 % of control
dose: 400.0 mg/kg/injection, schedule: Q04DX002 (ip), vehicle: saline
  T/C: 103 % of control

## CN1C(c2ccccc2)(c2ccccc2)c2ccccc2S1(=O)=O
[2]
  T/C: 95 % of control
[3]
  T/C: 95 % of control
[4]
  T/C: 93 % of control

## CCOC(=O)NP(=O)(NNc1ccccc1)NNc1ccccc1
[1]
  T/C: 104 % of control
[2]
  T/C: 89 % of control
[3]
  T/C: 95 % of control
[4]
  T/C: 89 % of control

## CC1CCN(c2ccc([N+](=O)[O-])cc2)CC1
[11]
  T/C: 100 % of control
[12]
  T/C: 97 % of control
[13]
  T/C: 99 % of control
dose: 200.0 mg/kg/injection, schedule: Q04DX003 (ip), vehicle: Klucel (hydroxypropylcellulose) (HPC)
  T/C: 95 % of control
[14]
  T/C: 100 % of control
[15]
  T/C: 101 % of control

## CCN(CC)c1ccc(NC(=O)Nc2ccccc2C)cc1
[5]
  T/C: 93 % of control
[6]
  T/C: 100 % of control
[7]
  T/C: 90 % of control
[8]
  T/C: 94 % of control
[9]
  T/C: 94 % of control
[10]
  T/C: 94 % of control

## COCC1OC(OC)C(NC(C)=O)C(OC)C1OC (configuration not stated)
[16]
  T/C: 101 % of control
[17]
  T/C: 101 % of control
[18]
  T/C: 96 % of control

## Clc1ncnc2c1ncn2C1CCCO1 (configuration not stated)
[16]
  T/C: 97 % of control
dose: 178.0 mg/kg/injection, schedule: Q01DX009 (ip), vehicle: saline
  T/C: 113 % of control
[17]
  T/C: 96 % of control
dose: 267.0 mg/kg/injection, schedule: Q01DX009 (ip), vehicle: saline
  T/C: 113 % of control
[18]
  T/C: 112 % of control
dose: 400.0 mg/kg/injection, schedule: Q01DX009 (ip), vehicle: saline
  T/C: 154 % of control

## COc1ccc(C)cc1NC(=O)c1c(Br)c(Br)c(Br)c(Br)c1C(=O)O
[11]
  T/C: 98 % of control
[13]
  T/C: 92 % of control

## Cc1c(C(N)=O)sc2ccccc12
[2]
  T/C: 89 % of control
[3]
  T/C: 107 % of control
[4]
  T/C: 94 % of control

## Nc1nc(NCCO)c(NC=O)c(=O)[nH]1
dose: 100.0 mg/kg/injection, schedule: Q01DX Z (ip), vehicle: methylcellulose (MC)
  T/C: 103 % of control
dose: 128.0 mg/kg/injection, schedule: Q01DX Z (ip), vehicle: methylcellulose (MC)
  T/C: 95 % of control
dose: 222.0 mg/kg/injection, schedule: Q01DX Z (ip), vehicle: methylcellulose (MC)
  T/C: 94 % of control
dose: 333.0 mg/kg/injection, schedule: Q01DX Z (ip), vehicle: methylcellulose (MC)
  T/C: 97 % of control

## O=C(/C=C/c1ccccc1[N+](=O)[O-])c1ccccc1
[11]
  T/C: 97 % of control
[13]
  T/C: 101 % of control
[14]
  T/C: 98 % of control

## CC1C2CCC(C2)C1CO (configuration not stated)
dose: 100.0 mg/kg/injection, schedule: Q04DX003 (ip), vehicle: saline
  T/C: 97 % of control
dose: 200.0 mg/kg/injection, schedule: Q04DX003 (ip), vehicle: saline
  T/C: 101 % of control
dose: 400.0 mg/kg/injection, schedule: Q04DX003 (ip), vehicle: saline
  T/C: 101 % of control

## N=C(N)c1ccc(C(=N)N)cc1
dose: 25.0 mg/kg/injection, schedule: Q01DX009 (ip), vehicle: water
  T/C: 95 % of control
dose: 50.0 mg/kg/injection, schedule: Q01DX009 (ip), vehicle: water
  T/C: 95 % of control and 99 % of control
dose: 100.0 mg/kg/injection, schedule: Q01DX009 (ip), vehicle: water
  T/C: 97 % of control and 103 % of control

## CC(=O)c1ccc(Nc2ccnc3cc(Cl)ccc23)cc1
dose: 75.0 mg/kg/injection, schedule: Q01DX001 (ip), vehicle: other
  T/C: 109 % of control
dose: 150.0 mg/kg/injection, schedule: Q01DX001 (ip), vehicle: other
  T/C: 96 % of control
dose: 300.0 mg/kg/injection, schedule: Q01DX001 (ip), vehicle: other
  T/C: 91 % of control

## Nc1n[nH]c(=S)s1
dose: 46.0 mg/kg/injection, schedule: Q03HX032 (ip), vehicle: Klucel (hydroxypropylcellulose) (HPC)
  T/C: 102 % of control
dose: 70.0 mg/kg/injection, schedule: Q03HX032 (ip), vehicle: Klucel (hydroxypropylcellulose) (HPC)
  T/C: 105 % of control
[11]
  T/C: 95 % of control
dose: 105.0 mg/kg/injection, schedule: Q03HX032 (ip), vehicle: Klucel (hydroxypropylcellulose) (HPC)
  T/C: 108 % of control
dose: 158.0 mg/kg/injection, schedule: Q03HX032 (ip), vehicle: Klucel (hydroxypropylcellulose) (HPC)
  T/C: 106 % of control
dose: 183.0 mg/kg/injection, schedule: Q01DX015 (ip), vehicle: Klucel (hydroxypropylcellulose) (HPC)
  T/C: 108 % of control
[13]
  T/C: 117 % of control
dose: 236.0 mg/kg/injection, schedule: Q03HX032 (ip), vehicle: Klucel (hydroxypropylcellulose) (HPC)
  T/C: 114 % of control
dose: 264.0 mg/kg/injection, schedule: Q01DX015 (ip), vehicle: Klucel (hydroxypropylcellulose) (HPC)
  T/C: 115 % of control
dose: 394.0 mg/kg/injection, schedule: Q01DX015 (ip), vehicle: Klucel (hydroxypropylcellulose) (HPC)
  T/C: 116 % of control
dose: 440.0 mg/kg/injection, schedule: Q01DX001 (ip), vehicle: Klucel (hydroxypropylcellulose) (HPC)
  T/C: 101 % of control
dose: 670.0 mg/kg/injection, schedule: Q01DX001 (ip), vehicle: Klucel (hydroxypropylcellulose) (HPC)
  T/C: 94 % of control

## CCCCNC(C)(C)C(SS)c1cccs1 (configuration not stated)
dose: 100.0 mg/kg/injection, schedule: Q04DX003 (ip), vehicle: saline sonified
  T/C: 96 % of control
dose: 200.0 mg/kg/injection, schedule: Q04DX003 (ip), vehicle: saline sonified
  T/C: 92 % of control
dose: 400.0 mg/kg/injection, schedule: Q04DX003 (ip), vehicle: saline sonified
  T/C: 96 % of control

## Cc1ccc(NP(Br)(c2ccccc2)(c2ccccc2)c2ccccc2)cc1
dose: 75.0 mg/kg/injection, schedule: Q01DX001 (ip), vehicle: acetone
  T/C: 95 % of control

## O=c1nc2n(c(=O)[nH]1)CCN2
[1]
  T/C: 101 % of control
[2]
  T/C: 101 % of control
[3]
  T/C: 104 % of control
[4]
  T/C: 106 % of control

## O=C(O)C1C2C=CC(C2)C1C(=O)Nc1ccccn1 (configuration not stated)
dose: 50.0 mg/kg/injection, schedule: Q01DX009 (ip), vehicle: saline with Tween-80
  T/C: 104 % of control
[5]
  T/C: 101 % of control
[7]
  T/C: 96 % of control

## Cc1ccccc1NC(=O)Oc1ccc2c(C)cc(=O)oc2c1
[11]
  T/C: 103 % of control
[13]
  T/C: 100 % of control

## Nc1ccccc1SC1CC(=O)N(c2cccc3ccccc23)C1=O (configuration not stated)
[12]
  T/C: 89 % of control
[15]
  T/C: 90 % of control

## CCOC(=O)C1=C(C)NC(C)=C(C(=O)OCC)C1c1ccc(Cl)cc1
[6]
  T/C: 98 % of control
[8]
  T/C: 93 % of control
[10]
  T/C: 88 % of control

## Nc1nc2nc3c(nc2c(=O)[nH]1)C(=O)N(c1ccc(C(=O)O)cc1)C3
[16]
  T/C: 103 % of control
[17]
  T/C: 103 % of control

## O=C(CC(=O)OCc1ccc([N+](=O)[O-])cc1)OCc1ccc([N+](=O)[O-])cc1
dose: 25.0 mg/kg/injection, schedule: Q01DX001 (ip), vehicle: Klucel (hydroxypropylcellulose) (HPC)
  T/C: 104 % of control
dose: 50.0 mg/kg/injection, schedule: Q01DX001 (ip), vehicle: Klucel (hydroxypropylcellulose) (HPC)
  T/C: 95 % of control
dose: 100.0 mg/kg/injection, schedule: Q01DX001 (ip), vehicle: Klucel (hydroxypropylcellulose) (HPC)
  T/C: 92 % of control
